Data from patent US12509431B2, “1,4-dihydroquinazolinone compounds and uses thereof” (Edgewise Therapeutics, Inc., priority 2022, dated 2025).

Columns and labels:
Type in all cases: biochemical
Conditions in all cases: Table 8
[1] = tested on: Rabbit Skeletal myofibrils (rabbit psoas muscle); assay: Myofibril ATPase assay (PK/LDH NADH-coupled), skeletal myofibrils
Method in brief: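 ATPase rate taken as linear-regression slope of A340 (NADH depletion through PK/LDH coupling) over a 75 min kinetic read, with psoas-derived rabbit skeletal myofibrils at pH 7.0. Four-parameter fits of vehicle-normalized activity give EC25 and, where reached, EC50.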

Porcine Atria myofibrils = assay: Myofibril ATPase assay (PK/LDH NADH-coupled), atria myofibrils
Method in brief: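 Values are EC25% (and, for inhibitors, EC50%) from 4-parameter logistic fits of activity normalized to vehicle wells. Rates came from linear regression of 340 nm kinetic reads (every 1.5-2 min, 75 min) of NADH-coupled ATP turnover by porcine atria myofibrils.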

[2] = target: T1, Porcine Ventricle myofibrils (left ventricle of Yucatan minipigs) (Sus scrofa, UniProt P79293); assay: Myofibril ATPase assay (PK/LDH NADH-coupled), ventricle myofibrils
T1 construct: Myofibrils from porcine cardiac muscle was isolated from the left ventricle of Yucatan minipigs; tissue Exemplar Genetics; host or cells: left ventricle of Yucatan minipigs
Method in brief: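 NADH depletion (A340) coupled through pyruvate kinase/lactate dehydrogenase reports ATPase rate of porcine left-ventricle myofibrils over 75 min kinetic reads. Regression slopes, vehicle-normalized, fitted by 4-parameter logistic give EC25 and, where available, EC50.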

T1 sequence (P79293 whole entry): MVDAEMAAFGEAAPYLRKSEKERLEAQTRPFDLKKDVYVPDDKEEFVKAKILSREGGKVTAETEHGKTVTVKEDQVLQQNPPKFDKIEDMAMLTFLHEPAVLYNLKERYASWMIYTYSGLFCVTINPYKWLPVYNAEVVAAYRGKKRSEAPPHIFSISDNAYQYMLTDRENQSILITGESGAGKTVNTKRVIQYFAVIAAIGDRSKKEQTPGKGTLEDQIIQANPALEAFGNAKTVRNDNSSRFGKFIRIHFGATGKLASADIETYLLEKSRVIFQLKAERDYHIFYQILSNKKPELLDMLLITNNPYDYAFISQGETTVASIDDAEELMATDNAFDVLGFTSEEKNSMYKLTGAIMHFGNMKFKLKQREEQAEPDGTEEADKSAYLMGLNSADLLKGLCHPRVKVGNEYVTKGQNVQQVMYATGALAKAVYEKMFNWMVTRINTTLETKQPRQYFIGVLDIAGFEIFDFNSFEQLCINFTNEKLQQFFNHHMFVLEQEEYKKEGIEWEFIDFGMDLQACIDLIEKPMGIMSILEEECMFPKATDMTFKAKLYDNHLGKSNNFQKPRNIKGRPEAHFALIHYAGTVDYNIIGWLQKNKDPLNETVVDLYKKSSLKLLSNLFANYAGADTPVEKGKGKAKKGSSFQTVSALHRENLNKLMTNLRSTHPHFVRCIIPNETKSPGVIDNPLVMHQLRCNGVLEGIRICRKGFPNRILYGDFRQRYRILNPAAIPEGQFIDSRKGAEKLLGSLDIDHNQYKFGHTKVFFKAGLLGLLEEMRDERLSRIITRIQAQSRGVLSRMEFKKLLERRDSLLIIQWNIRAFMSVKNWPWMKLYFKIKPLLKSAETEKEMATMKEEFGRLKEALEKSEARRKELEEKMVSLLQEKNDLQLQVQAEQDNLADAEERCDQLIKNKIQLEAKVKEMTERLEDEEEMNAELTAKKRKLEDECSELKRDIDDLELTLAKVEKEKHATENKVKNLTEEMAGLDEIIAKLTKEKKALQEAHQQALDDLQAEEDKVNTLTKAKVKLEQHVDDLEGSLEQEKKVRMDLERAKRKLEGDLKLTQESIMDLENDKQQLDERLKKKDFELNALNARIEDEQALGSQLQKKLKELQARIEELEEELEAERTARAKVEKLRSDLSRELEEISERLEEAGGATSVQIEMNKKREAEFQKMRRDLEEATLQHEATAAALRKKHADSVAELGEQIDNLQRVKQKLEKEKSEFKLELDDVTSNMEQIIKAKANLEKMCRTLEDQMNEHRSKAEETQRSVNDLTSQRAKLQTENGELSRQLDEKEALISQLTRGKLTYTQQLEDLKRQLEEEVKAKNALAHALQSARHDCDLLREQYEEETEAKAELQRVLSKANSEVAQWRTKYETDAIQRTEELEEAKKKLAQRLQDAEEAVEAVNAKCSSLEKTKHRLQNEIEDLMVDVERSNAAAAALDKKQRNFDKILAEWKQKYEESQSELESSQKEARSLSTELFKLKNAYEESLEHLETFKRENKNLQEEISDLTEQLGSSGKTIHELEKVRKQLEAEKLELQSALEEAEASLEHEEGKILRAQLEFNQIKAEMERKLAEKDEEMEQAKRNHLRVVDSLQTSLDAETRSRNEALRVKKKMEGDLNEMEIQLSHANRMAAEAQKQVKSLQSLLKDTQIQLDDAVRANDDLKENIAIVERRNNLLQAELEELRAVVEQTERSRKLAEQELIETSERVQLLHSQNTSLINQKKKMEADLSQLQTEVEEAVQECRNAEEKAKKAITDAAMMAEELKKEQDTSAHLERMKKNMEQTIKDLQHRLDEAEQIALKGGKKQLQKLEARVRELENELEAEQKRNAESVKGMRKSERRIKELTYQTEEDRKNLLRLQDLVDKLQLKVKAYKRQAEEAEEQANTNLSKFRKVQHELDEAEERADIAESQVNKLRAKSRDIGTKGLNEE

Row | Structure (SMILES) | Rabbit Psoas IC25 [1] [µM] | Porcine Atria IC25 (Porcine Atria myofibrils) [µM] | Porcine Ventricle IC25 [2] [µM]
1 | C[C@@H](NC(=O)CN1Cc2c(ccc(F)c2F)NC1=O)c1ccc(C#N)cn1 [Compound B135] | 1.618 | 0.51 | 15.88
2 | C[C@H](NC(=O)CN1Cc2c(ccc(F)c2F)NC1=O)c1ccc(C#N)cn1 [Compound B136] | 0.0645 | 0.42 | 0.764
3 | C[C@@H](NC(=O)CN1C(=O)Nc2ccc(F)cc2C12CC2)c1ccc(C#N)cn1 [Compound B137] | 0.1155 | 0.12 | 0.6995
4 | C[C@H](NC(=O)CN1C(=O)Nc2ccc(F)cc2C12CC2)c1ccc(C#N)cn1 [Compound B138] | 100 | 1.53 | 100
5 | N#Cc1c(F)ccc2c1CN(CC(=O)N[C@@H]1COc3cc(F)cc(F)c31)C(=O)N2 [Compound B139] | 0.01393 | 0.05 | 0.1215
6 | N#Cc1c(F)ccc2c1CN(CC(=O)N[C@H]1COc3cc(F)cc(F)c31)C(=O)N2 [Compound B140] | 1.501 | 1.10 | 55.23
7 | C[C@@H](NC(=O)CN1Cc2cc(C#N)ccc2NC1=O)c1ncc(C#N)cc1F [Compound B143] | 100 | 100.00 | 100
8 | C[C@H](NC(=O)CN1Cc2cc(C#N)ccc2NC1=O)c1ncc(C#N)cc1F [Compound B144, 2-(6-cyano-2-oxo-1,4-dihydroquinazolin-3-yl)-N-[(1S)-1-(5-cyano-3-fluoropyridin-2-yl)ethyl]acetamide] | 2.787 | 0.72 | 47.42
9 | O=C(CN1Cc2cc(F)ccc2NC1=O)N[C@H]1COc2cc(F)cc(F)c21 [Compound B146] | 5.163 | 1.52 | 68.33
10 | O=C(CN1Cc2c(ccc(F)c2F)NC1=O)N[C@H]1COc2cc(F)cc(F)c21 [Compound B148] | 0.4985 | 0.85 | 5.833
11 | C[C@@H](NC(=O)CN1C(=O)Nc2ccc(C#N)cc2C12CC2)c1ncc(F)cc1F [Compound B149] | 0.1803 | 73.55 | 100
12 | C[C@H](NC(=O)CN1C(=O)Nc2ccc(C#N)cc2C12CC2)c1ncc(F)cc1F [Compound B150] | 100 | 0.98 | 22.65
13 | C[C@@H](NC(=O)CN1Cc2c(C#N)cccc2NC1=O)c1ncc(F)cc1F [Compound B153] | 0.5161 | 16.33 | 100
14 | C[C@H](NC(=O)CN1Cc2c(C#N)cccc2NC1=O)c1ncc(F)cc1F [Compound B154] | 0.0315 | 0.18 | 2.518
15 | C[C@H](NC(=O)CN1C(=O)Nc2ccccc2[C@H]1C)c1ccc(F)cc1F [Compound B155] | 0.0851 | 0.43 | 3.17
16 | C[C@H](NC(=O)CN1C(=O)Nc2ccccc2[C@H]1C)c1ccc(F)cc1F [Compound B156] | 0.232 | 4.12 | 10.58
17 | CC(NC(=O)CN1Cc2cc(C#N)ccc2NC1=O)c1ncc(C#N)cc1F (stereo not drawn) [Compound B157] | 100 | 5.96 | 100
18 | C[C@@H]1c2ccccc2NC(=O)N1CC(=O)N[C@H](C)c1ncc(F)cc1F [Compound B158] | 18.11 | 100.00 | 100

The next lines start with the values.

Row | Rabbit Psoas IC25 [1] [µM] | Porcine Atria IC25 (Porcine Atria myofibrils) [µM] | Porcine Ventricle IC25 [2] [µM] | Structure (SMILES)
19 | 100 | 100.00 | 100 | C[C@@H](NC(=O)CN1C(=O)Nc2ccccc2[C@@H]1C)c1ncc(F)cc1F [Compound B159]
20 | 0.3154 | 0.36 | 4.311 | C[C@H](NC(=O)CN1Cc2c(ccc(C#N)c2F)NC1=O)c1ccc(F)cc1F [Compound B160, 2-(6-Cyano-5-fluoro-2-oxo-1,4-dihydroquinazolin-3-yl)-N-[(1S)-1-(2,4-difluorophenyl)ethyl]acetamide]
21 | 1.295 | 4.15 | 45.8 | C[C@H](NC(=O)CN1C(=O)Nc2ccccc2[C@H]1C)c1ncc(F)cc1F [Compound B161]
22 | 0.7039 | 52.14 | 100 | C[C@H](NC(=O)CN1C(=O)Nc2ccccc2[C@@H]1C)c1ncc(F)cc1F [Compound B162]
23 | 0.4728 | 2.08 | 31.68 | C[C@@H](NC(=O)CN1C(=O)Nc2ccc(F)cc2C12CC2)c1ncc(F)cc1F [Compound B163]
24 | 0.0273 | 0.10 | 0.3444 | C[C@H](NC(=O)CN1C(=O)Nc2ccc(F)cc2C12CC2)c1ncc(F)cc1F [Compound B164]
25 | 100 | 17.36 | 100 | C[C@@H]1c2ccccc2NC(=O)N1CC(=O)N[C@@H](CO)c1ncc(F)cc1F [Compound B165]
26 | 6.966 | 51.60 | 100 | C[C@H]1c2ccccc2NC(=O)N1CC(=O)N[C@@H](CO)c1ncc(F)cc1F [Compound B166]
27 | 100 | 100.00 | 100 | C[C@@H](C(=O)N[C@H](CO)c1ncc(F)cc1F)N1Cc2c(Cl)cccc2NC1=O [Compound B167]
28 | 100 | 100.00 | 100 | C[C@H](C(=O)N[C@H](CO)c1ncc(F)cc1F)N1Cc2c(Cl)cccc2NC1=O [Compound B168]
29 | 0.3955 | 0.15 | 1.354 | C[C@@H](C(=O)N[C@@H](CO)c1ncc(F)cc1F)N1Cc2c(Cl)cccc2NC1=O [Compound B169]
30 | 9.578 | 2.85 | 31.8 | C[C@H](C(=O)N[C@@H](CO)c1ncc(F)cc1F)N1Cc2c(Cl)cccc2NC1=O [Compound B170]
31 | 7.545 | 19.79 | 100 | C[C@@H](NC(=O)CN1Cc2cc(F)ccc2NC1=O)c1ccc(C#N)cn1 [Compound B171]
32 | 100 | 100.00 | 100 | C[C@@H](NC(=O)CN1Cc2cc(F)ccc2NC1=O)c1ncccc1F [Compound B173]
33 | 83 | 46.54 | 100 | C[C@H](NC(=O)CN1Cc2cc(F)ccc2NC1=O)c1ncccc1F [Compound B174]
34 | 100 | 100.00 | 100 | O=C(CN1Cc2c(ccc(F)c2F)NC1=O)N[C@H](CO)c1ncc(F)cc1F [Compound B175]
35 | 0.08998 | 0.06 | 0.3872 | O=C(CN1Cc2c(ccc(F)c2F)NC1=O)N[C@@H](CO)c1ncc(F)cc1F [Compound B176]
36 | 68.51 | 100.00 | 100 | C[C@@H](NC(=O)CN1Cc2cc(F)ccc2NC1=O)c1ccc(F)cc1F [Compound B177]
37 | 3.38 | 3.48 | 100 | COc1cnc([C@@H](C)NC(=O)CN2Cc3cc(F)ccc3NC2=O)c(F)c1 [Compound B178]
38 | 100 | 100.00 | 100 | O=C(CN1Cc2cc(F)ccc2NC1=O)N[C@H](CO)c1ncc(F)cc1F [Compound B180]
39 | 1.159 | 2.28 | 100 | Cc1cccnc1[C@@H](C)NC(=O)CN1Cc2c(ccc(F)c2F)NC1=O [Compound B182]
40 | 100 | 100.00 | 100 | Cc1cccnc1[C@H](C)NC(=O)CN1Cc2c(ccc(F)c2F)NC1=O [Compound B183]
41 | 100 | 57.48 | 56.86 | COc1cccnc1[C@@H](C)NC(=O)CN1Cc2c(ccc(F)c2F)NC1=O [Compound B184]
42 | 100 | 100.00 | 100 | COc1cccnc1[C@H](C)NC(=O)CN1Cc2c(ccc(F)c2F)NC1=O [Compound B185]
43 | 100 | 100.00 | 100 | COc1cccnc1[C@@H](C)NC(=O)CN1Cc2cc(F)ccc2NC1=O [Compound B186]
